Laboratory results as given in PubChem BioAssay AID2060486 (Molecular Pharmacology Branch, DTP, NCI, 2025).

System: IGROV1 complex spheroids (HUVEC, MSC), viability % test/control
Assay: Anticancer human tumor IGROV1 cell line growth inhibition [GQUAD];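 note: spheroids exposed to compounds for 7 days before readout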;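 for viability, T/C: 100% = DMSO vehicle control viability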
Conditions: for IC50: curve of first compound; for viability, T/C: stronger effect = lower value
Method in brief: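 Multi-cell-type spheroids of tumor cells with HUVEC and mesenchymal stem cells, treated with drug combinations. Concentrations descend in half-log steps from near clinical Cmax, or from 10 microM where Cmax is unknown; viability read-out.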

[1] = second compound 0.0316 µM, first compound 0.0316 µM
[2] = second compound 0.0316 µM, first compound 0.1 µM
[3] = second compound 0.0316 µM, first compound 0.316 µM
[4] = second compound 0.0316 µM, first compound 1 µM
[5] = second compound 0.0316 µM, first compound 3.16 µM
[6] = second compound 0.0316 µM, first compound 10 µM
[7] = second compound 0.1 µM, first compound 0.0316 µM
[8] = second compound 0.1 µM, first compound 0.1 µM
[9] = second compound 0.1 µM, first compound 0.316 µM
[10] = second compound 0.1 µM, first compound 1 µM
[11] = second compound 0.1 µM, first compound 3.16 µM
[12] = second compound 0.1 µM, first compound 10 µM
[13] = second compound 0.316 µM, first compound 0.0316 µM
[14] = second compound 0.316 µM, first compound 0.1 µM
[15] = second compound 0.316 µM, first compound 0.316 µM
[16] = second compound 0.316 µM, first compound 1 µM
[17] = second compound 0.316 µM, first compound 3.16 µM
[18] = second compound 0.316 µM, first compound 10 µM
[19] = second compound 1 µM, first compound 0.0316 µM
[20] = second compound 1 µM, first compound 0.1 µM
[21] = second compound 1 µM, first compound 0.316 µM
[22] = second compound 1 µM, first compound 1 µM
[23] = second compound 1 µM, first compound 3.16 µM
[24] = second compound 1 µM, first compound 10 µM
[25] = second compound 3.16 µM, first compound 0.0316 µM
[26] = second compound 3.16 µM, first compound 0.1 µM
[27] = second compound 3.16 µM, first compound 0.316 µM
[28] = second compound 3.16 µM, first compound 1 µM
[29] = second compound 3.16 µM, first compound 3.16 µM
[30] = second compound 3.16 µM, first compound 10 µM
[31] = second compound 10 µM, first compound 0.0316 µM
[32] = second compound 10 µM, first compound 0.1 µM
[33] = second compound 10 µM, first compound 0.316 µM
[34] = second compound 10 µM, first compound 1 µM
[35] = second compound 10 µM, first compound 3.16 µM
[36] = second compound 10 µM, first compound 10 µM

With Nc1ccn(C2OC(CO)C(O)C2(F)F)c(=O)n1 (centres undefined) + Cc1[nH]c2ccc(F)cc2c1-c1nc2c3cccnc3c3ncccc3c2[nH]1 the IC50 (second compound 0.0316 µM) was less than 31.6 nM, the IC50 (second compound 0.1 µM) was less than 31.6 nM and the IC50 (second compound 0.316 µM) was less than 31.6 nM. For the same compound, the IC50 (second compound 1 µM) was less than 31.6 nM, the IC50 (second compound 3.16 µM) was less than 31.6 nM and the IC50 (second compound 10 µM) was less than 31.6 nM. It also gave a viability, T/C [1] of 10.5%, a viability, T/C [2] of 6.29% and a viability, T/C [3] of 5.85%. For the same compound, the viability, T/C [4] was 6.52%, the viability, T/C [5] was 6.69% and the viability, T/C [6] was 5.57%. For the same compound, the viability, T/C [7] was 18%, the viability, T/C [8] was 6.64% and the viability, T/C [9] was 5.87%. It also gave a viability, T/C [10] of 5.31%, a viability, T/C [11] of 5.55% and a viability, T/C [12] of 6.59%. It also gave a viability, T/C [13] of 11.5%, a viability, T/C [14] of 6.38% and a viability, T/C [15] of 6.31%. It also gave a viability, T/C [16] of 6.72%, a viability, T/C [17] of 6.12% and a viability, T/C [18] of 5.22%. It also gave a viability, T/C [19] of 4.26%, a viability, T/C [20] of 5% and a viability, T/C [21] of 3.88%. It also gave a viability, T/C [22] of 3.77%, a viability, T/C [23] of 3.84% and a viability, T/C [24] of 3.25%. The viability, T/C [25] was 5.06%, the viability, T/C [26] was 4.43% and the viability, T/C [27] was 3.62%. It also gave a viability, T/C [28] of 4.5%, a viability, T/C [29] of 4.02% and a viability, T/C [30] of 2.81%. It also gave a viability, T/C [31] of 3.58%, a viability, T/C [32] of 4.69% and a viability, T/C [33] of 4.1%. The viability, T/C [34] was 4.26%, the viability, T/C [35] was 3.44% and the viability, T/C [36] was 2.86%.
O=c1[nH]cc(F)c(=O)[nH]1 + Cc1[nH]c2ccc(F)cc2c1-c1nc2c3cccnc3c3ncccc3c2[nH]1 was tested, and the IC50 (second compound 0.0316 µM) was 6750 nM, the IC50 (second compound 0.1 µM) was 5500 nM and the IC50 (second compound 0.316 µM) was 4000 nM. The IC50 (second compound 1 µM) was less than 31.6 nM, the IC50 (second compound 3.16 µM) was less than 31.6 nM and the IC50 (second compound 10 µM) was less than 31.6 nM. The viability, T/C [1] was 104%, the viability, T/C [2] was 83.6% and the viability, T/C [3] was 103%. For the same compound, the viability, T/C [4] was 80.3%, the viability, T/C [5] was 82.6% and the viability, T/C [6] was 34.5%. The viability, T/C [7] was 96.1%, the viability, T/C [8] was 104% and the viability, T/C [9] was 84%. For the same compound, the viability, T/C [10] was 69.5%, the viability, T/C [11] was 80.8% and the viability, T/C [12] was 27.8%. For the same compound, the viability, T/C [13] was 79.6%, the viability, T/C [14] was 67.5% and the viability, T/C [15] was 77.1%. It also gave a viability, T/C [16] of 70.8%, a viability, T/C [17] of 55.4% and a viability, T/C [18] of 24.3%. The viability, T/C [19] was 5.37%, the viability, T/C [20] was 4.95% and the viability, T/C [21] was 4.49%. For the same compound, the viability, T/C [22] was 4.87%, the viability, T/C [23] was 5.05% and the viability, T/C [24] was 5.26%. The viability, T/C [25] was 4.5%, the viability, T/C [26] was 4.46% and the viability, T/C [27] was 5.38%. It also gave a viability, T/C [28] of 4.48%, a viability, T/C [29] of 5.61% and a viability, T/C [30] of 4.44%. It also gave a viability, T/C [31] of 4.32%, a viability, T/C [32] of 4.75% and a viability, T/C [33] of 4.71%. The viability, T/C [34] was 4.66%, the viability, T/C [35] was 4.72% and the viability, T/C [36] was 5.12%.
